# Calls of active or inactive are those of the source. The rule behind the calls is not given here.
# Tested on: CCRIS mutagenicity, Ames/micronucleus/aberration tests
# Experiment: CCRIS mutagenicity studies
# [1] = Test System: AMES SALMONELLA TYPHIMURIUM, Strain/Indicator: TA97, Metabolic Activation: NONE, Method: PREINCUBATION
# [2] = Test System: AMES SALMONELLA TYPHIMURIUM, Strain/Indicator: TA97, Metabolic Activation: RAT, LIVER, S-9, AROCLOR 1254 (10%), Method: PREINCUBATION
# [3] = Test System: AMES SALMONELLA TYPHIMURIUM, Strain/Indicator: TA98, Metabolic Activation: NONE, Method: PREINCUBATION
# [4] = Test System: AMES SALMONELLA TYPHIMURIUM, Strain/Indicator: TA98, Metabolic Activation: RAT, LIVER, S-9, AROCLOR 1254 (10%), Method: PREINCUBATION
# [5] = Test System: AMES SALMONELLA TYPHIMURIUM, Strain/Indicator: TA100, Metabolic Activation: NONE, Method: PREINCUBATION
# [6] = Test System: AMES SALMONELLA TYPHIMURIUM, Strain/Indicator: TA100, Metabolic Activation: RAT, LIVER, S-9, AROCLOR 1254 (10%), Method: PREINCUBATION
smiles,measurement,setting,value
CCSCCC(N)C(=O)O (stereo not given),mutagenic call,"Test System: AMES SALMONELLA TYPHIMURIUM, Strain/Indicator: TA97, Metabolic Activation: HAMSTER, LIVER, S-9, AROCLOR 1254 (10%), Method: PREINCUBATION",inactive; negative
same,mutagenic call,"Test System: AMES SALMONELLA TYPHIMURIUM, Strain/Indicator: TA97, Metabolic Activation: HAMSTER, LIVER, S-9, AROCLOR 1254 (30%), Method: PREINCUBATION",inactive; negative
same,mutagenic call,[1],inactive; negative
same,mutagenic call,[2],inactive; negative
same,mutagenic call,"Test System: AMES SALMONELLA TYPHIMURIUM, Strain/Indicator: TA97, Metabolic Activation: RAT, LIVER, S-9, AROCLOR 1254 (30%), Method: PREINCUBATION",inactive; negative
same,mutagenic call,"Test System: AMES SALMONELLA TYPHIMURIUM, Strain/Indicator: TA98, Metabolic Activation: HAMSTER, LIVER, S-9, AROCLOR 1254 (10%), Method: PREINCUBATION",inactive; negative
same,mutagenic call,"Test System: AMES SALMONELLA TYPHIMURIUM, Strain/Indicator: TA98, Metabolic Activation: HAMSTER, LIVER, S-9, AROCLOR 1254 (30%), Method: PREINCUBATION",inactive; negative
same,mutagenic call,[3],inactive; negative
same,mutagenic call,[4],inactive; negative
same,mutagenic call,"Test System: AMES SALMONELLA TYPHIMURIUM, Strain/Indicator: TA98, Metabolic Activation: RAT, LIVER, S-9, AROCLOR 1254 (30%), Method: PREINCUBATION",inactive; negative
same,mutagenic call,"Test System: AMES SALMONELLA TYPHIMURIUM, Strain/Indicator: TA100, Metabolic Activation: HAMSTER, LIVER, S-9, AROCLOR 1254 (10%), Method: PREINCUBATION",inactive; negative
same,mutagenic call,"Test System: AMES SALMONELLA TYPHIMURIUM, Strain/Indicator: TA100, Metabolic Activation: HAMSTER, LIVER, S-9, AROCLOR 1254 (30%), Method: PREINCUBATION",inactive; negative
same,mutagenic call,[5],inactive; negative
same,mutagenic call,[6],inactive; negative
same,mutagenic call,"Test System: AMES SALMONELLA TYPHIMURIUM, Strain/Indicator: TA100, Metabolic Activation: RAT, LIVER, S-9, AROCLOR 1254 (30%), Method: PREINCUBATION",inactive; negative
same,mutagenic call,"Test System: AMES SALMONELLA TYPHIMURIUM, Strain/Indicator: TA104, Metabolic Activation: HAMSTER, LIVER, S-9, AROCLOR 1254 (10%), Method: PREINCUBATION",inactive; negative
same,mutagenic call,"Test System: AMES SALMONELLA TYPHIMURIUM, Strain/Indicator: TA104, Metabolic Activation: HAMSTER, LIVER, S-9, AROCLOR 1254 (30%), Method: PREINCUBATION",inactive; negative
same,mutagenic call,"Test System: AMES SALMONELLA TYPHIMURIUM, Strain/Indicator: TA104, Metabolic Activation: NONE, Method: PREINCUBATION",inactive; negative
same,mutagenic call,"Test System: AMES SALMONELLA TYPHIMURIUM, Strain/Indicator: TA104, Metabolic Activation: RAT, LIVER, S-9, AROCLOR 1254 (10%), Method: PREINCUBATION",inactive; negative
same,mutagenic call,"Test System: AMES SALMONELLA TYPHIMURIUM, Strain/Indicator: TA104, Metabolic Activation: RAT, LIVER, S-9, AROCLOR 1254 (30%), Method: PREINCUBATION",inactive; negative
same,mutagenic call,"Test System: AMES SALMONELLA TYPHIMURIUM, Strain/Indicator: TA1535, Metabolic Activation: HAMSTER, LIVER, S-9, AROCLOR 1254 (10%), Method: PREINCUBATION",inactive; negative
same,mutagenic call,"Test System: AMES SALMONELLA TYPHIMURIUM, Strain/Indicator: TA1535, Metabolic Activation: HAMSTER, LIVER, S-9, AROCLOR 1254 (30%), Method: PREINCUBATION",inactive; negative
same,mutagenic call,"Test System: AMES SALMONELLA TYPHIMURIUM, Strain/Indicator: TA1535, Metabolic Activation: NONE, Method: PREINCUBATION",inactive; negative
same,mutagenic call,"Test System: AMES SALMONELLA TYPHIMURIUM, Strain/Indicator: TA1535, Metabolic Activation: RAT, LIVER, S-9, AROCLOR 1254 (10%), Method: PREINCUBATION",inactive; negative
same,mutagenic call,"Test System: AMES SALMONELLA TYPHIMURIUM, Strain/Indicator: TA1535, Metabolic Activation: RAT, LIVER, S-9, AROCLOR 1254 (30%), Method: PREINCUBATION",inactive; negative
NC(=O)NCC(=O)O,mutagenic call,"Test System: AMES SALMONELLA TYPHIMURIUM, Strain/Indicator: TA97, Metabolic Activation: NONE, Method: STANDARD PLATE",inactive; negative
same,mutagenic call,"Test System: AMES SALMONELLA TYPHIMURIUM, Strain/Indicator: TA97, Metabolic Activation: RAT, LIVER, S-9, AROCLOR 1254, Method: STANDARD PLATE",inactive; negative
same,mutagenic call,"Test System: AMES SALMONELLA TYPHIMURIUM, Strain/Indicator: TA98, Metabolic Activation: NONE, Method: STANDARD PLATE",inactive; negative
same,mutagenic call,"Test System: AMES SALMONELLA TYPHIMURIUM, Strain/Indicator: TA98, Metabolic Activation: RAT, LIVER, S-9, AROCLOR 1254, Method: STANDARD PLATE",inactive; negative
same,mutagenic call,"Test System: AMES SALMONELLA TYPHIMURIUM, Strain/Indicator: TA100, Metabolic Activation: NONE, Method: STANDARD PLATE",inactive; negative
same,mutagenic call,"Test System: AMES SALMONELLA TYPHIMURIUM, Strain/Indicator: TA100, Metabolic Activation: RAT, LIVER, S-9, AROCLOR 1254, Method: STANDARD PLATE",inactive; negative
same,mutagenic call,"Test System: AMES SALMONELLA TYPHIMURIUM, Strain/Indicator: TA102, Metabolic Activation: NONE, Method: STANDARD PLATE",inactive; negative
same,mutagenic call,"Test System: AMES SALMONELLA TYPHIMURIUM, Strain/Indicator: TA102, Metabolic Activation: RAT, LIVER, S-9, AROCLOR 1254, Method: STANDARD PLATE",inactive; negative
CCCCCC=O,mutagenic call,"Test System: CHINESE HAMSTER V-79, Strain/Indicator: V-79/6-THIOGUANINE (HGPRT), Metabolic Activation: NONE, Method: REPLATING",active; positive
same,mutagenic call,"Test System: CHINESE HAMSTER V-79, Strain/Indicator: V-79/OUABAIN (NA/K), Metabolic Activation: NONE, Method: REPLATING",active; positive
same,mutagenic call,"Test System: UDS HUMAN HEPATOCYTES, Strain/Indicator: THY INCORP, Metabolic Activation: NONE, Method: AUTORADIOGRAPHY",inactive; negative
same,mutagenic call,"Test System: UDS RAT HEPATOCYTES, Strain/Indicator: THY INCORP, Metabolic Activation: NONE, Method: AUTORADIOGRAPHY",active; positive
O=c1c2[nH]c3ccccc3c2nnn1/N=C/c1ccc([N+](=O)[O-])cc1,mutagenic call,[1],active; positive
same,mutagenic call,[2],active; positive
same,mutagenic call,[3],active; positive
same,mutagenic call,[4],active; positive
same,mutagenic call,[5],active; positive
same,mutagenic call,[6],active; positive
same,mutagenic call,"Test System: AMES SALMONELLA TYPHIMURIUM, Strain/Indicator: TA102, Metabolic Activation: NONE, Method: PREINCUBATION",inactive; negative
same,mutagenic call,"Test System: AMES SALMONELLA TYPHIMURIUM, Strain/Indicator: TA102, Metabolic Activation: RAT, LIVER, S-9, AROCLOR 1254 (10%), Method: PREINCUBATION",inactive; negative
